The subject of series [1] is HIV-LTR promoter (tat transactivation) in 293-EBNA cells. The series is described as follows: AP reporter gene expression from HIV-LTR promoter with tat expression vector, 293-EBNA cells. It is filed as cell-based, HIV; human cells. An excerpt: The plasmid construct, pHIV.AP, using the human immunodeficiency virus (HIV) long terminal repeat (LTR) promoter (derived from pU3R-III CAT, Sodroski et al., Science 227:171, 1985) to direct the expression of the sPAP reporter gene, was made by replacing the CMV promoter region from pCMV.AP with the HIV-LTR promoter. PHIV.AP was co-transfected with pSV2tat72, an expression vector for the 72 amino acids tat protein from HIV (Frankel and Pabo, Cell 55:1189-1193, 1988), into 293-EBNA cells (Invitrogen). The cultured cells were treated with various concentrations of the compounds. The expression of the alkaline phosphatase (AP) reporter gene in the individual cultures was measured by following change in absorbance at 405 nm of the cell conditioned media in the presence of a suitable substrate (e.g., ortho-nitrophenol phosphate) (Berger et al., Gene 66:1-10, 1988).
We set up a cell-based system with a cell line cotransfected with an expression plasmid using HIV-1-LTR promoter to direct synthesis of AP reporter gene and an expression plasmid to direct synthesis of the first 72 amino acids of tat protein. Plasmid pREP7 (Invitrogen) was converted to pREP7b by deleting 2,040 bp EBNA-1 coding region and by replacing the pBR322 origin of replication (ori) with the pBluescript KS (Stratagene) ori region. The cDNA for secreted placental alkaline phosphatase (AP) was generated by PCR with the primers (5'-[…]-3')(SEQ ID NO. 3) and (5'-[…]-3') (SEQ ID NO. 4)using the plasmid pGEM-4Z/PLAP489 (American Type Culture Collection) as the template. The 2,000 bp Xba I-Sal I fragment obtained was ligated into a Nhe I/Xho I vector derived from pREP7b to generate the plasmid pREP7b.AP. The 44 bp Xba I-Bgl II fragment from plasmid pMEP4 (Invitrogen)and the 36 bp BamH I-Kpn I fragment from pREP7 were ligated into the Xba I-Kpn I vector fragment from pREP7b.AP to generate the plasmid pMCS.AP. The 720 bp Xho I-Hind III fragment encoding the HIV-LTR promoter from the plasmid pU3R-III-CAT (Sodroski et al., Science 227:171-173, 1985) was ligated into the Xho I-Hind III vector fragment of PMCS.AP to generate the plasmid pHIV.AP. The CMV promoter was derived from the 600 bp Spe I-Asp718 I fragment from pCEP4 (Invitrogen). The 360 bp SV40 early promoter fragments were produced from pSV2tat72 (Frankel et al., Cell 55:1189-1193,1988) by PCR using the primers (5'-[…]-3') (SEQ ID NO. 5) and (5'-[…]-3') (SEQ ID NO. 6). The 480 bp phosphoglycerate kinase (PGK) promoter fragment was amplified from human placental genomic DNA (Promega, Madison, Wis.) based on published sequence (Pfeifer et al., Science 246:810-813, 1990) using the primers (5'-[…]-3') (SEQ ID NO. 7) and (5'-[…]-3') (SEQ ID NO. 8). The above fragments were ligated into the Xba I-Asp718 I vector fragment of pHIV.AP to generate pHIV2.AP, pHIV3.AP, pCMV.AP, pSVE.AP and PPGK.AP respectively. The tat-expression plasmid directed by HIV-LTR promoter, pHIV.tat, was generated by inserting the 400 bp EcoRV-HindIII fragment from pHIV.AP into the PvuII-HindIII vector fragment from pSV2tat72 (Frankel et al., Cell 55:1189-1193, 1988).
Transient transfections with various expression plasmids were performed on a human kidney embryonic cell line 293-EBNA (Invitrogen) using the cationic lipid DOTAP (Boehringer Mannheim). The cell culture media were changed 24 hr after transfection into a serum-free medium AIM V (Life Technologies) before addition of compounds or TNF-α (PeproTech) at the appropriate concentrations. AP activity measured by a colorimetric assay (Berger et al., Gene 66:1-10, 1988) was performed 19-24 hr later.

Series [2] is described as follows: Viability of 293-EBNA cells (dye not stated). Conditions: human.
The next series relates to AP mRNA in 293tat cells. The series is described as follows: AP mRNA level in 293tat cells, Northern blot. The series is classed as cell-based, human. Conditions: with TNF-α or IL-1β. As to the method: (§1) Nuclear extracts (A) from 293tat cells were tested by EMSA for activation of NFκB. A radiolabeled 40-mer covering the NFκB sequences in the HIV promoter was used as a probe. Cells were incubated with CT2576 at 12 μM, human TNF-α at 40 ng/ml or IL-1β at 1 ng/ml, or pre-incubated for 30 min. with CT2576 and then stimulated with TNF-α or IL-1β for 18 hr prior to making extracts. RNA was extracted from 293tat cells (B) after treatment with CT2576 without or with TNF-α or IL-1β for 18 hr. Northern blots analysis were performed using probes derived from AP cDNA and G3PDH cDNA as a control for normalization of mRNA level. AP activity was determined in cell supernatants from the various samples.
(§2) NFκB binding activity in nuclear extracts (Dignam et al., Nucleic Acids Res. 11:1475-1489, 1983) of cells was measured by electrophoretic mobility-shift assay (EMSA) (Carthew et al., Cell 43:439-448, 1985) using 5'-labeled double-stranded synthetic DNA with two NF-κB motifs. Northern blot analysis was performed with total RNA run on 1% agarose/formaldehyde gel and probed with ^32 P-labeled cDNA of AP and glyceraldehyde-3-phosphate dehydrogenase (G3PDH).

For series [3], the system named is phosphatidic acid (PA) subspecies in 293tat cells. Kind of series: PA composition of 293tat cells by HPLC. It is filed as cell-based, human. As to the method:
One must first quantitatively and qualitatively separate PAs from the other lipids found in serum by a chemical extraction of lipids and high performance liquid chromatography (HPLC) to separate and detect PAs. […] Briefly, the method of Bligh et al. involves an organic extraction of lipids from biological tissue homogenates or fluids. One volume of sample and three volumes of methanol:chloroform (2:1) are vigorously shaken for 2 min. One volume of chloroform is added and then shaken vigorously for 30 sec. One volume of water is added and then shaken vigorously for 30 sec. The mixture is filtered and the upper aqueous layer is discarded. The lower organic layer contains a mixture of lipid classes. The method of Folch et al. involves the extraction of lipids from biological tissue homogenates or body fluids. One volume of sample plus 20 volumes of chloroform:methanol (2:1) are vigorously shaken for 2 min. The mixture is filtered and an amount of 0.1 N KCl equal to 20% of the extraction mixture volume is added and the mixture is shaken vigorously for 2 min. The aqueous and organic phases are allowed to separate. The upper aqueous layer is discarded. The lower organic layer contains a mixture of lipid classes. […] This method involves separation of lipids into their major classes by normal phase (silica) high performance liquid chromatography (HPLC). A 5 micron, 25 cm×0.45 cm silica HPLC column is connected to a binary solvent delivery system followed with a UV detector. The lipid sample is injected on the column and a solvent gradient is run at 1.0 ml/min. The solvent gradient is hexane:isopropanol:water in the proportions 3:4:0.75 run isocratically for 3 min, then ramped to hexane:isopropanol:water in the proportions 3:4:1.4 in 15 min, then run isocratically at the same proportions for 15 min. Detection is at 206 nm.
One of the steps after cell activation involves the hydrolysis of phosphatidylcholine (PC), the major phospholipid of cellular membranes, by phospholipases C and D, leading to the generation of second messengers, such as PA and DG, in the signal transduction cascade.

In series [4] the test system is HIV-LTR promoter in 293-EBNA cells. Kind of series: AP reporter expression in 293-EBNA cells with HIV-LTR plasmids, TNF-α stimulation. It is filed as cell-based, HIV; human cells. As to the method:
FIG. 14 illustrates the effect of tat and TNF-α on HIV-LTR-mediated reporter gene expression in 293-EBNA cells. The y-axis refers to the relative amount of AP reporter gene activity present in the culture media of 293-EBNA cells after transient transfection with various plasmids. Freshly trypsinized 293-EBNA cells at 10^4 cells per sample were transfected with 2 μg of either pHIV.AP, pHIV2.AP, or pHIV3.AP alone or in combination with pSV2tat72 or pHIV.tat using the cationic lipid DOTAP. The plasmids pHIV.AP, pHIV2.AP, and pHIV3.AP contain nucleotides -453 to +80, -107 to +80, and -80 to +80 of the HIV-LTR sequence respectively. Transfected cells were plated in 96-well microtiter plates at 2,000 cells per well. The cell culture media were changed 24 hr later into new medium. The samples were incubated for another 24 hr with or without TNF-α (20 ng/ml). 2 μl of medium from each well was used for AP assay. The height of each column represents the mean of triplicate samples with error bar indicating the standard deviation of the mean.
AP reporter gene activity expressed in 293-EBNA cells transfected with either pHIV.AP alone or in combination with pSV2tat72, pHIV.tat or with TNF-α stimulation is shown in FIG. 14. The plasmid pHIV.AP contains the full-length HIV-LTR sequence that extends from nucleotides -453 to +80. The expression level of AP was low using the pHIV.AP construct alone, indicating the presence of negative regulatory elements in the HIV-LTR sequence. Induction with TNF-α increased the AP expression level by about 4 fold. The AP expression level increased by 15 to 70 fold in the presence of the tat expression plasmids pHIV.tat or pSV2tat72. […] TNF-α and tat in combination enhanced the AP expression level by two fold when using the pSV2tat72 construct, and by ten fold when using the pHIV.tat construct, but the final levels of AP activity were similar.

The test system of a further series is NFκB. The series is described as follows: NFκB activation in 293tat cells, electrophoretic mobility shift assay. It is filed as cell-based, human. As to conditions: CT2576 12 μM, TNF-α 40 ng/ml or IL-1β 1 ng/ml. As to the method: as §1, §2

As to `CCCCCCCCCCCCNCC(O)CCCCCCCn1c(=O)c2c(ncn2C)n(C)c1=O` (stereo not shown) [CT2573, 1-(9-dodecylamino-8-hydroxynonyl)-3,7-dimethylxanthine], in series [1] (293-EBNA cells, HIV promoter, in words), the “inhibition of AP expression (HIV-LTR promoter)” value is on record as “did not affect AP activity”. The IC50 in series [1] (Homo sapiens, 293-EBNA, read-out: concentration inhibiting AP expression by 50%) is 1000 to 4000 nM. Moreover, the half-maximal cytotoxic concentration (CC50) in series [2] is ~5 µM.

Regarding TNF-α, the “AP transcript / mRNA steady-state level” value with AP mRNA in 293tat cells is “induction of AP transcripts”. In addition, the “increase of C14-16 saturated acyl chain PA peak” value in series [3] (TNF-α 45 sec) was “up to 80%”. Besides, in series [3] (TNF-α 45 sec (from 5.4%)), the “C14-16 saturated PA peak, share of total far UV absorbing lipids after TNF-α” value amounted to 9%. In series [4] (TNF-α and tat in combination, pHIV.tat construct), the “fold enhancement of AP expression by TNF-α with pHIV.tat” value is on record as “ten”. In addition, the “fold enhancement of AP expression by TNF-α with pSV2tat72” value in series [4] (TNF-α and tat in combination, pSV2tat72 construct) was “two”. The “fold increase of AP expression level by TNF-α” value in series [4] (pHIV.AP alone) is listed as “about 4 fold”. The “activation of NFκB” value in the series on NFκB is on record as “NFκB was activated”.

The record behind these values is US5985926A, “Method for inhibiting intracellular viral replication” (Cell Therapeutics, Inc., priority 1997, dated 1999).
